Data as given in PubChem BioAssay (NCI).
Values joined by “and” are separate entries in the source; they are usually repeats but may differ in a detail not shown here. Equal values may be shown once.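 All cell lines were grown in 96-well plates and treated with compound for 48 hours. The concentration for 50% growth inhibition is given as GI50. TGI is the concentration that stops growth completely.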

Columns and labels:
Experiment in all cases: NCI-60 cell line screen, 48 h
EKVX NSCLC = tested on: EKVX NSCLC
NCI/ADR-RES ovarian = tested on: NCI/ADR-RES ovarian
M14 melanoma = tested on: M14 melanoma
SR leukemia = tested on: SR leukemia
SK-MEL-5 melanoma = tested on: SK-MEL-5 melanoma
CAKI-1 renal = tested on: CAKI-1 renal
SNB-75 CNS = tested on: SNB-75 CNS
OVCAR-5 ovarian = tested on: OVCAR-5 ovarian
IGROV1 ovarian = tested on: IGROV1 ovarian
MCF7 breast = tested on: MCF7 breast

Row | SMILES | GI50 (EKVX NSCLC) | TGI (EKVX NSCLC) | GI50 (NCI/ADR-RES ovarian) | TGI (NCI/ADR-RES ovarian) | GI50 (M14 melanoma) | TGI (M14 melanoma) | GI50 (SR leukemia) | TGI (SR leukemia) | GI50 (SK-MEL-5 melanoma) | TGI (SK-MEL-5 melanoma) | GI50 (CAKI-1 renal) | TGI (CAKI-1 renal) | GI50 (SNB-75 CNS) | TGI (SNB-75 CNS) | GI50 (OVCAR-5 ovarian) | TGI (OVCAR-5 ovarian) | GI50 (IGROV1 ovarian) | TGI (IGROV1 ovarian) | GI50 (MCF7 breast) | TGI (MCF7 breast)
1 | CCN(CC)CCCC(CNc1ccnc2cc(Cl)ccc12)c1ccc(Cl)cc1 (stereo unspecified) | 2.11 µM and 1.67 µM | 6.03 µM and 4.11 µM | 2.02 µM and 2.13 µM | 5.14 µM and 5.87 µM | 0.227 µM and 0.203 µM | 0.612 µM and 0.405 µM | 0.337 µM and 0.307 µM | 1.38 µM and 1.09 µM | 1.13 µM | 2.4 µM | 1.48 µM and 0.547 µM | 3.2 µM and 1.91 µM | 1.58 µM and 1.4 µM | 3.18 µM and 2.85 µM | 2.53 µM and 2.16 µM | 8.25 µM and 6.25 µM | 2.42 µM and 1.6 µM | 7.47 µM and 4.55 µM | 1.31 µM and 1.24 µM | 3.15 µM and 2.71 µM
2 | O/N=C/C1C(OCc2ccccc2)C(OCc2ccccc2)C(OCc2ccccc2)CN1Cc1ccccc1 (stereo unspecified) |  | > 100 µM | 7.12 µM and 22.3 µM | 72.5 µM and > 100 µM | 11.7 µM and 5.68 µM | 40.3 µM and > 100 µM | 8.3 µM and 2 µM | > 100 µM |  | 23.9 µM |  | > 100 µM | 11.5 µM and > 100 µM | 33.1 µM and > 100 µM | 20 µM and 9.34 µM | 57.3 µM and > 100 µM |  | 65.9 µM and > 100 µM | 9.88 µM and 2.9 µM | 40.8 µM and 15.7 µM
3 | COc1cc(C2CC(c3cccc(Br)c3)=NN2C(C)=O)cc(OC)c1OC (stereo unspecified) | 1.48 µM | > 100 µM | 0.324 µM | 34 µM | 0.555 µM | 50.2 µM | 0.0402 µM | > 100 µM | 0.289 µM | 14.9 µM | 0.282 µM | 54.1 µM | 0.368 µM | > 100 µM | 2.93 µM | > 100 µM | 2.04 µM | > 100 µM | 0.208 µM | 27.1 µM
4 | S=C1NC2(CCCCCC2)NN1c1ccccc1 |  | > 100 µM |  | > 100 µM |  | > 100 µM |  | > 100 µM |  | > 100 µM |  | > 100 µM |  | > 100 µM |  | > 100 µM |  | > 100 µM |  | > 100 µM
5 | O=C(O)CCC(=O)c1ccc[nH]1 |  | > 100 µM |  | > 100 µM |  | > 100 µM |  | > 100 µM |  | > 100 µM |  | > 100 µM |  | > 100 µM |  | > 100 µM |  | > 100 µM |  | > 100 µM
6 | O=C(O)C1C2C=CC(O2)C1C(=O)NCc1ccccn1 (stereo unspecified) |  | > 100 µM |  | > 100 µM |  | > 100 µM |  | > 100 µM |  | > 100 µM |  | > 100 µM |  | > 100 µM |  | > 100 µM |  | > 100 µM |  | > 100 µM
7 | CCN(CC)c1ccc2c(c1)OC(N)=C(C#N)C2c1cc(OC)c2c(c1)OCO2 (stereo unspecified) | 0.0767 µM | > 100 µM | < 0.0142 µM | 0.0679 µM | 0.0138 µM | 0.0459 µM | < 0.017 µM | 1.98 µM | 0.0287 µM | 0.597 µM | 0.108 µM | 59.1 µM | 0.02 µM | 42.5 µM | 0.0639 µM | 30.1 µM | 0.104 µM | 33.7 µM | 0.0294 µM | 11.5 µM
8 | CN1CCN(CCOc2ccc(-c3cnc4c(-c5ccccc5F)cnn4c3)cc2)CC1 | 1.65 µM | 3.37 µM | 2.4 µM | 6.42 µM | 1.82 µM | 3.52 µM | 2.59 µM | > 100 µM | 1.63 µM | 3 µM | 1.56 µM | 2.9 µM | 1.35 µM | 2.66 µM | 1.72 µM | 3.23 µM | 1.81 µM | 3.58 µM | 1.32 µM | 2.97 µM
9 | COc1ccc(-n2cc(-c3cc(OC)c(OC)c(OC)c3)c(C(=O)C(F)(F)F)c2C)cc1 | 13.9 µM | > 100 µM | 25.8 µM | > 100 µM | > 100 µM | > 100 µM | 4.54 µM | > 100 µM | 7.33 µM | > 100 µM | 73.8 µM | > 100 µM | 13.8 µM | > 100 µM | > 100 µM | > 100 µM | 85.7 µM | > 100 µM | 14.2 µM | > 100 µM
10 | C=C1C(=O)O[C@@H]2C[C@@H]1CC/C(C)=C/CC/C(C)=C/CC[C@@]2(C)O | 23.5 µM | 48.9 µM | 9.28 µM | 24.4 µM | 2.04 µM | 8.37 µM | 1.63 µM | 3.58 µM | 16.2 µM | 36.4 µM | 10.7 µM | 23.7 µM | 26.4 µM | 47.4 µM | 22.1 µM | 39.4 µM | 0.766 µM | 20.2 µM | 11.9 µM | 36.2 µM
11 | CCCCCCNC(=O)c1cc(NCc2cc(O)ccc2O)ccc1O | 7.69 µM | 25.2 µM | 5.44 µM | 78.1 µM | 11.1 µM | 25.2 µM | 2.88 µM | > 100 µM | 11.8 µM | 25.4 µM | 4.35 µM | 18.5 µM | 4.63 µM | 21.1 µM | 6.63 µM | 20.8 µM | 12.7 µM | 38.7 µM | 5.01 µM | 27.7 µM
